From USRE42890E1, “Furazanobenzimidazoles” (Basilea Pharmaceutica AG, priority 2003, dated 2011)

Legend:
Jurkat = assay: MTS proliferation assay, Jurkat; assay type: cell-based, human; details: 72 h incubation, read-out: MTS proliferation assay IC 50 Jurkat
Procedure, shortened: (§1)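 Human lines, EGFP-transfected or not, grow in RPMI-1640 plus 5% or 10% FCS and 2-mercaptoethanol. They receive test compound for 72 h at final concentrations of 10, 3, 1 and 0.3 μM, and MTS conversion is measured at 492 nm.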

Jily = assay: MTS proliferation assay, Jily; assay type: cell-based; details: 72 h incubation, read-out: MTS proliferation assay IC 50 Jily
Procedure, shortened: (§2)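 Seed cells in complete RPMI-1640 medium and allow 24 h attachment. Add compounds to final 10 μM, 3 μM, 1 μM or 0.3 μM and incubate 72 h at 37° C. Add MTS, incubate 3 h more, then measure absorption at 492 nm.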

HT1080 = assay: MTS proliferation assay, HT1080; assay type: cell-based, human; details: HT1080, 72 h incubation; read-out: MTS proliferation assay IC 50 HT1080
Procedure, shortened: as §1

HeLa = assay: MTS proliferation assay, HeLa; assay type: cell-based, human; details: 72 h incubation, read-out: MTS proliferation assay IC 50 HeLa
Procedure, shortened: as §1

MRC5 = assay: MTS proliferation assay, MRC5; assay type: cell-based; details: MRC5, 72 h incubation; read-out: MTS proliferation assay IC 50 MRC5
Procedure, shortened: as §2

[1] = test system: adherent cells or suspension cells; assay: Hoechst 33342 nuclear staining (fraction of apoptotic nuclei); assay type: cell-based; set-up: key: 0 relating to no activity; 1 relating to weak activity comprising less than 70% of the cells; score 2 relating to strong activity comprising more than 70% of the cells

`Nc1nonc1-c1nc2ccccc2n1CC(=NO)c1cccc(Cl)c1` (mixture of isomers) [Example 36] was tested, and the IC50 (Jurkat) was 10 to 100 nM, the IC50 (Jily) was 10 to 100 nM and the IC50 (HT1080) was 100 to 1000 nM. For the same molecule, the IC50 (HeLa) was 10 to 100 nM, the IC50 (MRC5) was 100 to 1000 nM and the “Hoechst 33342 nuclear staining score” value ([1]; H460, conc 0.01 μm) was 0. The “Hoechst 33342 nuclear staining score” value ([1]; H460, conc 0.1 μm) was 0, the “Hoechst 33342 nuclear staining score” value ([1]; H460, conc 1 μm) was 0 and the “Hoechst 33342 nuclear staining score” value ([1]; HeLa, conc 0.01 μm) was 0. For the same molecule, the “Hoechst 33342 nuclear staining score” value ([1]; HeLa, conc 0.1 μm) was 0, the “Hoechst 33342 nuclear staining score” value ([1]; HeLa, conc 1 μm) was 0 and the “Hoechst 33342 nuclear staining score” value ([1]; Jily, conc 0.01 μm) was 0. For the same molecule, the “Hoechst 33342 nuclear staining score” value ([1]; Jily, conc 0.1 μm) was 0, the “Hoechst 33342 nuclear staining score” value ([1]; Jily, conc 1 μm) was 0 and the “Hoechst 33342 nuclear staining score” value ([1]; MRC5, conc 0.01 μm) was 0. For the same molecule, the “Hoechst 33342 nuclear staining score” value ([1]; MRC5, conc 0.1 μm) was 0, the “Hoechst 33342 nuclear staining score” value ([1]; MRC5, conc 1 μm) was 0 and the “Hoechst 33342 nuclear staining score” value ([1]; PBLs, conc 0.01 μm) was 0. For the same molecule, the “Hoechst 33342 nuclear staining score” value ([1]; PBLs, conc 0.1 μm) was 0 and the “Hoechst 33342 nuclear staining score” value ([1]; PBLs, conc 1 μm) was 0.

`Nc1nonc1-c1nc2ccccc2n1COc1ccc(C(F)(F)F)cc1` [Example 91] showed an IC50 (Jurkat) of 100 to 1000 nM, an IC50 (Jily) of 100 to 1000 nM and an IC50 (HT1080) of 100 to 1000 nM. The IC50 (HeLa) was 100 to 1000 nM, the IC50 (MRC5) was 100 to 1000 nM and the “Hoechst 33342 nuclear staining score” value ([1]; HeLa, conc 0.01 μm) was 0. The “Hoechst 33342 nuclear staining score” value ([1]; HeLa, conc 0.1 μm) was 0, the “Hoechst 33342 nuclear staining score” value ([1]; HeLa, conc 1 μm) was 0 and the “Hoechst 33342 nuclear staining score” value ([1]; Jily, conc 0.01 μm) was 0. The “Hoechst 33342 nuclear staining score” value ([1]; Jily, conc 0.1 μm) was 0, the “Hoechst 33342 nuclear staining score” value ([1]; Jily, conc 1 μm) was 2 (score 2 relating to strong activity comprising more than 70% of the cells) and the “Hoechst 33342 nuclear staining score” value ([1]; Jurkat, conc 0.01 μm) was 0. The “Hoechst 33342 nuclear staining score” value ([1]; Jurkat, conc 0.1 μm) was 0, the “Hoechst 33342 nuclear staining score” value ([1]; Jurkat, conc 1 μm) was 2 (score 2 relating to strong activity comprising more than 70% of the cells) and the “Hoechst 33342 nuclear staining score” value ([1]; MRC5, conc 0.01 μm) was 0. The “Hoechst 33342 nuclear staining score” value ([1]; MRC5, conc 0.1 μm) was 0, the “Hoechst 33342 nuclear staining score” value ([1]; MRC5, conc 1 μm) was 0 and the “Hoechst 33342 nuclear staining score” value ([1]; PBLs, conc 0.01 μm) was 0. The “Hoechst 33342 nuclear staining score” value ([1]; PBLs, conc 0.1 μm) was 0 and the “Hoechst 33342 nuclear staining score” value ([1]; PBLs, conc 1 μm) was 0.

With `Cc1cc2nc(-c3nonc3N)n(CC(=O)c3ccccc3)c2cc1C` [Example 108] the IC50 (Jurkat) was 100 to 1000 nM, the IC50 (Jily) was 100 to 1000 nM and the IC50 (HT1080) was 100 to 1000 nM. For the same molecule, the IC50 (HeLa) was 100 to 1000 nM, the IC50 (MRC5) was 100 to 1000 nM and the “Hoechst 33342 nuclear staining score” value ([1]; H460, conc 0.01 μm) was 0. For the same molecule, the “Hoechst 33342 nuclear staining score” value ([1]; H460, conc 0.1 μm) was 0, the “Hoechst 33342 nuclear staining score” value ([1]; H460, conc 1 μm) was 1 (1 relating to weak activity comprising less than 70% of the cells) and the “Hoechst 33342 nuclear staining score” value ([1]; HeLa, conc 0.01 μm) was 0. The “Hoechst 33342 nuclear staining score” value ([1]; HeLa, conc 0.1 μm) was 0, the “Hoechst 33342 nuclear staining score” value ([1]; HeLa, conc 1 μm) was 0 and the “Hoechst 33342 nuclear staining score” value ([1]; Jily, conc 0.01 μm) was 0. For the same molecule, the “Hoechst 33342 nuclear staining score” value ([1]; Jily, conc 0.1 μm) was 0, the “Hoechst 33342 nuclear staining score” value ([1]; Jily, conc 1 μm) was 2 (score 2 relating to strong activity comprising more than 70% of the cells) and the “Hoechst 33342 nuclear staining score” value ([1]; Jurkat, conc 0.01 μm) was 0. The “Hoechst 33342 nuclear staining score” value ([1]; Jurkat, conc 0.1 μm) was 0, the “Hoechst 33342 nuclear staining score” value ([1]; Jurkat, conc 1 μm) was 2 (score 2 relating to strong activity comprising more than 70% of the cells) and the “Hoechst 33342 nuclear staining score” value ([1]; MRC5, conc 0.01 μm) was 0. For the same molecule, the “Hoechst 33342 nuclear staining score” value ([1]; MRC5, conc 0.1 μm) was 0, the “Hoechst 33342 nuclear staining score” value ([1]; MRC5, conc 1 μm) was 0 and the “Hoechst 33342 nuclear staining score” value ([1]; PBLs, conc 0.01 μm) was 0. For the same molecule, the “Hoechst 33342 nuclear staining score” value ([1]; PBLs, conc 0.1 μm) was 0 and the “Hoechst 33342 nuclear staining score” value ([1]; PBLs, conc 1 μm) was 0.

`Nc1nonc1-c1nc2ccccc2n1CC(=O)/C=C/c1ccc(Cl)cc1` [Example 118] gave an IC50 (Jurkat) greater than 1000 nM, an IC50 (Jily) greater than 1000 nM and an IC50 (HT1080) greater than 1000 nM. The IC50 (HeLa) was greater than 1000 nM, the IC50 (MRC5) was greater than 1000 nM and the “Hoechst 33342 nuclear staining score” value ([1]; H460, conc 0.01 μm) was 0. For the same molecule, the “Hoechst 33342 nuclear staining score” value ([1]; H460, conc 0.1 μm) was 0, the “Hoechst 33342 nuclear staining score” value ([1]; H460, conc 1 μm) was 0 and the “Hoechst 33342 nuclear staining score” value ([1]; HeLa, conc 0.01 μm) was 0. The “Hoechst 33342 nuclear staining score” value ([1]; HeLa, conc 0.1 μm) was 0, the “Hoechst 33342 nuclear staining score” value ([1]; HeLa, conc 1 μm) was 0 and the “Hoechst 33342 nuclear staining score” value ([1]; Jily, conc 0.01 μm) was 0. The “Hoechst 33342 nuclear staining score” value ([1]; Jily, conc 0.1 μm) was 0, the “Hoechst 33342 nuclear staining score” value ([1]; Jily, conc 1 μm) was 1 (1 relating to weak activity comprising less than 70% of the cells) and the “Hoechst 33342 nuclear staining score” value ([1]; Jurkat, conc 0.01 μm) was 0. The “Hoechst 33342 nuclear staining score” value ([1]; Jurkat, conc 0.1 μm) was 0, the “Hoechst 33342 nuclear staining score” value ([1]; Jurkat, conc 1 μm) was 0 and the “Hoechst 33342 nuclear staining score” value ([1]; MRC5, conc 0.01 μm) was 0. The “Hoechst 33342 nuclear staining score” value ([1]; MRC5, conc 0.1 μm) was 0, the “Hoechst 33342 nuclear staining score” value ([1]; MRC5, conc 1 μm) was 0 and the “Hoechst 33342 nuclear staining score” value ([1]; PBLs, conc 0.01 μm) was 0. The “Hoechst 33342 nuclear staining score” value ([1]; PBLs, conc 0.1 μm) was 0 and the “Hoechst 33342 nuclear staining score” value ([1]; PBLs, conc 1 μm) was 0.
